Earlier results as cited in patent US20030004236A1, “Magnetic resonance imaging agents for detection and delivery of therapeutic agents and detection of physiological substances” (priority 2001, published 2003).

Details: thermodynamic stability of the Gd(III) chelate; background section

Compound	stability constant (K), also known as formation constant, logK
O=C([O-])CN(CCN(CC(=O)[O-])CC(=O)[O-])CCN(CC(=O)[O-])CC(=O)[O-].[Gd+3] [Gd(DTPA)^2−]	22.4
O=C([O-])CN1CCN(CC(=O)[O-])CCN(CC(=O)O)CCN(CC(=O)[O-])CC1.[Gd+3] [Gd-DOTA]	28.5
